Test results taken from patent publication US7951838B2, “Substituted spirocyclic chromanamine compounds as Beta-Secretase modulators and methods of use” (Amgen Inc., priority 2007, dated 2011).

Legend:
BACE [1] = molecular target: T1, BACE (Homo sapiens, UniProt P56817); experiment: In vitro enzymatic BACE FRET assay (Enzyme Assay); type: biochemical; conditions: pH 4.2, enzyme 0.2 nM, FRET substrate 50 nM
T1 construct: Cells stably expressing Amyloid Precursor Protein (APP) were plated at a density of 40K cells/well in 96 well plates; endogenous in cells
T1 sequence (P56817 46-501): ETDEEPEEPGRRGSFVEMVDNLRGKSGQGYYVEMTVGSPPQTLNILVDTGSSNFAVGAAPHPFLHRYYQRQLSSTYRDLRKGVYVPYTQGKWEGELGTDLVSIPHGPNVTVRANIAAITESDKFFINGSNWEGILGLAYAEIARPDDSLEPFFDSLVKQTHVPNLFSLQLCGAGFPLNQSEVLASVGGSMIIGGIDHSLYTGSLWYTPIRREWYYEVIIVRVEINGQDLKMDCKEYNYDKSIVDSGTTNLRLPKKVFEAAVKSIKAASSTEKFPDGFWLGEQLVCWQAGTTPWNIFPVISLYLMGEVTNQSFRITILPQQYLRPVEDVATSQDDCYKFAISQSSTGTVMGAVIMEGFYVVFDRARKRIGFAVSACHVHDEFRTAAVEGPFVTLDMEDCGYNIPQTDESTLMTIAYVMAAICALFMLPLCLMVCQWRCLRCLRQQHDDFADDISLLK
Procedure: In Vitro Enzymatic BACE FRET (Fluorescence Resonance Energy Transfer) Assay (Enzyme Assay)
Assay buffer is 0.05 M acetate, pH 4.2, 10% DMSO final, 100 uM genapol (which is a nonionic detergent, below it's Critical Micelle Concentration). Enzyme (0.2 nM) is pre-incubated for one hour with inhibitors added in 1 uL of DMSO. Then the assay is started by the addition of FRET substrate (50 nM) and incubated for one hour. The FRET assay is terminated with by addition of Tris buffer, which raises the pH to neutrality, and the fluorescence is determined The FRET substrate is a peptide with commercially available fluorophore and quencher, on opposite sides of the BACE cleavage site. Proteolytic cleavage of the FRET substrate releases quenching of fluorescence (excitation 488 nm and […]).

BACE [2] = molecular target: T1, BACE; experiment: BACE cell-based assay (Cell Assay), inhibition of Aβ40 by sandwich ELISA; conditions: Aβ40 in conditioned medium of cells stably expressing APP, 24 h incubation
Procedure: BACE Cell-Based Assay (Cell Assay)
The cell-based assay measures inhibition or reduction of Aβ40 in conditioned medium of test compound treated cells expressing amyloid precursor protein.
Cells stably expressing Amyloid Precursor Protein (APP) were plated at a density of 40K cells/well in 96 well plates (Costar). The cells were cultivated for 24 hours at 37° C. and 5% CO2 in DMEM supplemented with 10% FBS. The test compounds were then added to cells in 10-point dose response concentrations with the starting concentration being either 100 μM or 10 μM. The compounds were diluted from stock solutions in DMSO and the final DMSO concentration of the test compounds on cells was 0.1%. After 24 h of incubation with the test compounds the supernatant conditioned media was collected and the Aβ40 levels were determined using a sandwich ELISA. The IC50 of the compound was calculated from the percent of control or percent inhibition of Aβ40 as a function of the concentration of the test compound.
The sandwich ELISA to detect Aβ40 was performed in 96 well microtiter plates, which were pre-treated with goat anti-rabbit IgG (Pierce). The capture and detecting antibody pair that were used to detect Aβ40 from cell supernatants were affinity purified pAb40 (Biosource) and biotinylated 6E10 (Signet Labs Inc.), respectively. The optimal concentration for the pAb40 antibody was 3 μg/ml in Superblock/TBS (Pierce) that was supplemented with 0.05% Tween 20 (Sigma). Optimal concentration for the detection antibody 6E10-biotinylated was 0.5 μg/ml in Superblock/TBS (Pierce) that had been supplemented with 2% normal goat serum and 2% normal mouse serum.
Cellular supernatants were incubated with the capture antibody for 3 h at 4° C., followed by 3 wash steps in TBS-tween (0.05%). The detecting antibody incubation was for 2 h at 4° C., again followed by the wash steps as described previously. The final readout of the ELISA is Time-Resolved Fluorescence (counts per minute) using Delfia reagents Streptavidin-Europium and Enhancement solutions (Perkin Elmer) and the Victor 2 multilabel counter (Perkin Elmer).

## CCc1ccc2c(c1)[C@@H](NC[C@@H](O)[C@H](Cc1ccccc1)Nc1nccc(CC)n1)CC1(CCC1)O2 [Example 37, (2R,3S)-1-((S)-6-ethyl-2,2-spirocyclobutyl-chroman-4-ylamino)-4-phenyl-3-(4-ethylpyrimidin-2-ylamino)butan-2-ol]
BACE [1]
  IC50: 10 to 25 µM
BACE [2]
  IC50: 5 to 10 µM

## CCc1ccc2c(c1)[C@@H](NC[C@@H](O)[C@H](Cc1ccccc1)Nc1ccc(Cl)nn1)CC1(CCC1)O2 [Example 39, (2R,3S)-3-((6-chloro-3-pyridazinyl)amino)-1-(((4S)-6-ethyl-3,4-dihydrospiro[chromene-2,1′-cyclobutan]-4-yl)amino)-4-phenyl-2-butanol]
BACE [1]
  IC50: 10 to 25 µM
BACE [2]
  IC50: 10 to 25 µM

## CSc1nc(Cl)cc(N[C@@H](Cc2ccc(F)cc2)[C@H](O)CN[C@H]2CC3(CCC3)Oc3ncc(CC(C)(C)C)cc32)n1 [Example 34, (2R,3S)-3-((6-chloro-2-(methylthio)-4-pyrimidinyl)amino)-1-(((4′S)-6′-(2,2-dimethylpropyl)-3′,4′-dihydrospiro[cyclobutane-1,2′-pyrano[2,3-b]pyridin]-4′-yl)amino)-4-(4-fluorophenyl)-2-butanol]
BACE [1]
  IC50: 5 to 10 µM
BACE [2]
  IC50: 10 to 25 µM

## CC(C)(C)Cc1cnc2c(c1)[C@@H](NC[C@@H](O)[C@H](Cc1ccc(F)cc1)Nc1ccnc(Cl)n1)CC1(CCC1)O2 [Example 29, (2R,3S)-3-((2-chloro-4-pyrimidinyl)amino)-1-(((4′S)-6′-(2,2-dimethylpropyl)-3′,4′-dihydrospiro[cyclobutane-1,2′-pyrano[2,3-b]pyridin]-4′-yl)amino)-4-(4-fluorophenyl)-2-butanol]
BACE [1]
  IC50: 1 to 5 µM
BACE [2]
  IC50: 10 to 25 µM
